Data set [1] concerns the target T1, Peroxisome proliferator-activated receptor gamma (Homo sapiens, UniProt P37231).
T1 sequence (P37231 whole entry): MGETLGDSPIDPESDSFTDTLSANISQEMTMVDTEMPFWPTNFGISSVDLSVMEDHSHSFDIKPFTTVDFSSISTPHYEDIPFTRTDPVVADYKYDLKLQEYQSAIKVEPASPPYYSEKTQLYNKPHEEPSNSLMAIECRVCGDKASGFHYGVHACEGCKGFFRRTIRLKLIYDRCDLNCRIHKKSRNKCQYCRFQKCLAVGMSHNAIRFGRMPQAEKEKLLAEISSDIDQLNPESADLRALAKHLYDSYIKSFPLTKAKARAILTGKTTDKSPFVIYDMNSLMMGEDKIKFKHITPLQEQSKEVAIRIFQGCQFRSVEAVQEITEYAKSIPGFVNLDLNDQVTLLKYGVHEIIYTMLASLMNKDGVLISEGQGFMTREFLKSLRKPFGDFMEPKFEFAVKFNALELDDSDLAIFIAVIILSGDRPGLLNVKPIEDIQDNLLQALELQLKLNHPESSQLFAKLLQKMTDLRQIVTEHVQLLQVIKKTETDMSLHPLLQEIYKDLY
Description: Agonist activity at human PPARgamma assessed as receptor activation by cell based assay

The target in data set [2] is T2, Peroxisome proliferator-activated receptor delta (Mus musculus, UniProt P35396).
T2 sequence (P35396 whole entry): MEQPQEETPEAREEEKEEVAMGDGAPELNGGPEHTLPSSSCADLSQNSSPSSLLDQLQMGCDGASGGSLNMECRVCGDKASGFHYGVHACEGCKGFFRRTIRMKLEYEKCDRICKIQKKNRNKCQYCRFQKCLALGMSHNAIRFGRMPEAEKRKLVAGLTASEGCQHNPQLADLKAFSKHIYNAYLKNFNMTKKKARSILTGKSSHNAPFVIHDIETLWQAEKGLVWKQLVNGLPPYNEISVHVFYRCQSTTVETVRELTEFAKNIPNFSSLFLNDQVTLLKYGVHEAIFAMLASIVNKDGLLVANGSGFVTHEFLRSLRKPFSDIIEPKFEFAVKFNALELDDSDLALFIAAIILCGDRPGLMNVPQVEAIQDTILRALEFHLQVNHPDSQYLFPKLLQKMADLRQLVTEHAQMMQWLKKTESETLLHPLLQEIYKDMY
Description: Agonist activity at mouse PPARdelta assessed as receptor activation by cell based assay

The target of data set [3] is T3, Peroxisome proliferator-activated receptor gamma (Mus musculus, UniProt P37238).
T3 sequence (P37238 whole entry): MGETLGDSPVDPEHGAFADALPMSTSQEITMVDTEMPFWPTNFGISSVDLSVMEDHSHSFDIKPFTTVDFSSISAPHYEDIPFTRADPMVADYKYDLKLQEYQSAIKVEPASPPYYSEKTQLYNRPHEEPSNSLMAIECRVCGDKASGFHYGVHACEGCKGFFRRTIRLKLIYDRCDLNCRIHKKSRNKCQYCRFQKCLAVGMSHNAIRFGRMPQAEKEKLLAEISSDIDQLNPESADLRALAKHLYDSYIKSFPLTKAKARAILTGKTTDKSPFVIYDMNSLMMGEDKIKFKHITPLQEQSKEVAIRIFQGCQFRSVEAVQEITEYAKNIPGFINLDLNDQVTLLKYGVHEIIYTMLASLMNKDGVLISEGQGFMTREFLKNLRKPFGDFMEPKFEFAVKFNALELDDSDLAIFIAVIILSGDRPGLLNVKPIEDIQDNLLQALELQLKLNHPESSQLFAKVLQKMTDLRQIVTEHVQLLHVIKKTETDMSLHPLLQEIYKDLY
Description: Agonist activity at mouse PPARgamma assessed as receptor activation by cell based assay

Data set [4] addresses T4, Peroxisome proliferator-activated receptor alpha (Mus musculus) (UniProt P23204).
T4 sequence (whole entry): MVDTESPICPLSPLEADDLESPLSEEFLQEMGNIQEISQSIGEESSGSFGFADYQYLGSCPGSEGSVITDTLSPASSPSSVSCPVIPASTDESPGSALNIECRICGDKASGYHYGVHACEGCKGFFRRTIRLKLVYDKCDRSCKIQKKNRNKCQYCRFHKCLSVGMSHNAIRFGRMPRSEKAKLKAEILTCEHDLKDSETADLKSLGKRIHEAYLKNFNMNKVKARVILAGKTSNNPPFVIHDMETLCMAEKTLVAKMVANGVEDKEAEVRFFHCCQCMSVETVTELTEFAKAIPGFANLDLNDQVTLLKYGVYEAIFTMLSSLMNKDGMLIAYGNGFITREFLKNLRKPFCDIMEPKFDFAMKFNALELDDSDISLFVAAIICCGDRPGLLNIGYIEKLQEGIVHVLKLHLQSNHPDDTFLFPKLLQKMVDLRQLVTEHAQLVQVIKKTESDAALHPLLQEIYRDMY
Description: (§1) Agonist activity at mouse PPARalpha assessed as receptor activation by cell based assay

In data set [5] the target is T5, Peroxisome proliferator-activated receptor delta (Homo sapiens, UniProt Q03181).
T5 sequence (Q03181 whole entry): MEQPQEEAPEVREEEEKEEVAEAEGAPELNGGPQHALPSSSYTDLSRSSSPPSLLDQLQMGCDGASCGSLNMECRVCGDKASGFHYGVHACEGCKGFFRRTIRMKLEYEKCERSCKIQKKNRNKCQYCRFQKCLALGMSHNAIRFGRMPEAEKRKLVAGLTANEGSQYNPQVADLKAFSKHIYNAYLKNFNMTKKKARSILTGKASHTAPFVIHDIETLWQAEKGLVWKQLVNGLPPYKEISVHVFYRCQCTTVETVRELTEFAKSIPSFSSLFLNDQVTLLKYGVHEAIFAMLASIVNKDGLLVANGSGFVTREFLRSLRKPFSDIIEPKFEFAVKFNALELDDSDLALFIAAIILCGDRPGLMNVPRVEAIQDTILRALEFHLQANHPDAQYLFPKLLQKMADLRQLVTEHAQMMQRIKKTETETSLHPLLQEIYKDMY
Description: Agonist activity at human PPARdelta assessed as receptor activation by cell based assay

Data set [6] concerns the target T6, Peroxisome proliferator-activated receptor alpha (Mus musculus, UniProt P23204).
T6 sequence (P23204 whole entry): T4 sequence (whole entry)
Description: as §1

The target of data set [7] is T7, Peroxisome proliferator-activated receptor alpha (Homo sapiens, UniProt Q07869).
T7 sequence (Q07869 whole entry): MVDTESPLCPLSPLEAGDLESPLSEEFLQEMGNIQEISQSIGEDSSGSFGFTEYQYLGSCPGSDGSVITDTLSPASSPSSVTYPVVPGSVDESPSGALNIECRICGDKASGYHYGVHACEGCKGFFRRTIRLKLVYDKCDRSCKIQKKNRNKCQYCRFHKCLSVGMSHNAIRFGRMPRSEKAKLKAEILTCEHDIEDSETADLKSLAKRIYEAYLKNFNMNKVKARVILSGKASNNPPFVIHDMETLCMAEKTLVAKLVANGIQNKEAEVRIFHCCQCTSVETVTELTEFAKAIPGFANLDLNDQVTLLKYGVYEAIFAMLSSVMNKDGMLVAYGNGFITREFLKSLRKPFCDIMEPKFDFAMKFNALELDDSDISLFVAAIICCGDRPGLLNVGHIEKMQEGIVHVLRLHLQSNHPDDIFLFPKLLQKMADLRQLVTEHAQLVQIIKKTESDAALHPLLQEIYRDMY
Description: Agonist activity at human PPARalpha assessed as receptor activation by cell based assay

Data set [8] has as its system Mus musculus. Description: Elevation of HDL cholesterol level in human Apo-A1 transgenic C57B6 mouse at 20 mg/kg, po bid after 5 days. Format: functional.
Data set [9] concerns Mus musculus. Description: Reduction of triglyceride level in human Apo-A1 transgenic C57B6 mouse at 20 mg/kg, po bid after 5 days. The data set is classed as functional. The arrangement: scale not given: the % may be the effect or the level left.
Data set [10] can be described thus: Volume of distribution in mouse plasma at 0.2 mg/kg, iv or 5 mg/kg, po. Format: ADME, organism-based. The settings on record: read-out: Vdss.
Data set [11] in a line: Clearance in mouse plasma at 0.2 mg/kg, iv or 5 mg/kg, po. The data set is classed as ADME, organism-based.
For data set [12], the system named is Mus musculus. Put plainly: Reduction of LDL cholesterol level in human Apo-A1 transgenic C57B6 mouse at 20 mg/kg, po bid after 5 days. Format: functional. The arrangement: scale not given: the % may be the effect or the level left.
The nature of data set [13]: Half life in mouse plasma at 0.2 mg/kg, iv or 5 mg/kg, po. The data set is classed as ADME, organism-based.
A short description of data set [14]: Cmax in mouse plasma at 5 mg/kg, po. Format: ADME, organism-based. The arrangement: dose 5 mg/kg, route oral.
Data set [15] can be described thus: Oral bioavailability in mouse at 5 mg/kg. The data set is classed as ADME, organism-based. The settings on record: in vivo.
The test system of data set [16] is Mus musculus. Description: Reduction of VLDL cholesterol level in human Apo-A1 transgenic C57B6 mouse at 20 mg/kg, po bid after 5 days. The arrangement: scale not given: the % may be the effect or the level left. Format: functional.
The nature of data set [17]: AUC in mouse plasma at 5 mg/kg, po. Format: ADME, organism-based. Further details: dose 5 mg/kg, route oral.

On to `Cc1nc(-c2ccc(C(F)(F)F)cc2)sc1C(=O)NCc1ccc(NS(C)(=O)=O)cc1`, for which the EC50 (commonly the midpoint of the concentration-response curve) in data set [1] is above 10000 nM; in data set [2] it was above 10000 nM; in data set [3], above 10000 nM; in data set [5] it was above 10000 nM; in data set [6], 800 nM; in [7] it was 60 nM. The Activity in [4] was determined as 78%.

For `O=C(NCc1ccc(NS(=O)(=O)C(F)(F)F)cc1)c1ccc(-c2ccc(Cl)cc2)cc1`, the Activity was 102% with Mus musculus [8]; -69% with Mus musculus [9]; -55% in the data set with Mus musculus [12]; 123% in data set [4]; -85% in the data set with Mus musculus [16]. Besides, the EC50 was 1100 nM in data set [1]; above 10000 nM in data set [2]; 600 nM in [3]; above 10000 nM in data set [5]; 20 nM in data set [6]; 5 nM in data set [7]. The Vd in [10] is 0.22 L/kg. Also, in [11], the clearance was determined as 0.78 mL/min/kg. In addition, the half-life (commonly how long it takes for the measured level to halve) in [13] is 4.9 h. Further, the concentration in [14] peaked (Cmax) at 4520 ng/mL. The bioavailability – broadly, dose-corrected exposure relative to a reference, in per cent – in data set [15] was 16%. Besides, in data set [17], the AUC – broadly, concentration integrated over time – amounted to 18800 ng·h/mL.

Turning to `Cc1nc(-c2ccc(C(F)(F)F)cc2)sc1C(=O)NCc1ccc(NS(=O)(=O)CC(F)(F)F)cc1`, the EC50 was 300 nM in [1]; above 10000 nM in [2]; 300 nM in data set [3]; above 10000 nM in [5]; 60 nM in data set [6]; 3 nM in data set [7]. Further, the Activity in [4] is 74%.
